Measured values reported in US20230064978A1, “CYCLIC PEPTIDE RECEPTOR LANTHIONINE SYNTHETASE C-LIKE PROTEIN (LANCL) AND USES THEREOF” (LATERAL IP PTY LTD, priority 2019, published 2023).
Entries after “also recorded” stand apart in the source; their conditions may differ. Bridges are numbered along the chain shown (N, C = ends). Where no end group is shown, it is not given here.

Assays:
[1] = test system: DRG neurons; assay: Confocal microscopy of PAL probe binding in DRG cell cultures, spinal nerve ligation model; type: cell-based, Sprague Dawley rats
Source text: LAT9991-PAL was used in conjunction with confocal microscopy to visualise the location of potential target(s), noting that analgesic agents can have activity at several sites, either on central or peripheral neurons, or on glial or inflammatory cells that are in proximity to neurons. To identify the cell types to which LAT9991-PAL binds, 3-day cell cultures of DRG from neuropathic or control sites were taken from animals with neuropathy due to spinal nerve ligation. Briefly, L5 and L6 spinal nerves of male Sprague Dawley rats were ligated to create a robust and long-lasting mechanical allodynia of the injured hind paw. Presence of neuropathic pain was confirmed 2 weeks post-spinal nerve ligation surgeries (day 14) using von Frey (VF) filaments (up-and-down method) applied on ipsilateral (injured) and contralateral (non-injured) paw). Live DRG cells were dissected out as described previously and incubated with LAT9991-PAL for 1 hour prior to UV irradiation to fix the binding in situ. […] As a specificity control, the binding of LAT9991-PAL to the neuropathic DRG was blocked in the presence of an excess amount of unlabeled LAT9991 peptide.

[2] = test system: tissue homogenates of nerve from neuropathic animals; assay: PAL cross-linking to nerve tissue homogenates and gel separation; type: binding
Source text: Using a ligand driven approach, the present inventors utilized the photo-activatable cross-linking PAL from Evotec A.G. (Photo-Activated Labelling) technology that derivatizes the active cyclic peptides to allow UV-induced cross-linking to binding targets (described herein as peptide/SEQ ID NO:X-PAL). This allows subsequent detection in cells, gels of tissue isolates or in pull-down of the peptide/target complex for sequencing by mass spectroscopy (PALMS).
LAT9991-PAL was cross-linked to tissue homogenates of nerve from neuropathic animals.

[3] = test system: A549 cells; assay: Confocal imaging of LAT9991F-PAL binding and LANCL1 co-localization, with siRNA knockdown and competitors, in A549 cells; type: cell-based; details: SiLANCL1 A549 cells; competitor 25 μM
Procedure: A photoactivatable analog of LAT8881 (LAT9991F (SEQ ID NO:13)-PAL), was used to conduct the experiments. A549 or NCI-H358 cells were treated with LAT9991F-PAL at 2.5 μM during 30 minutes. Fluorescent signal was recorded after that LAT9991F-PAL was immobilized on its target(s) site by UV-crosslinking and the LAT9991F-PAL-target complexes were labeled with the green-fluorescent Alexa Fluor 488 alkyne dye by click-chemistry. Control cells were treated with the vehicle, dimethyl sulfoxide (DMSO), and with LAT9991F-PAL in combination with a large excess of the parent drug LAT8881 or other competitors, GSH, NSC61610 or ABA to evaluate, respectively, the non-specific fluorescent background and the specificity of the staining. For colocalization experiments, subsequently, immunofluorescence staining with an anti-LANCL1 or LANCL2 antibodies and an Alexa 568 (red) conjugated secondary antibody was performed. Images stacks of cells labeled with probes were collected and evaluated for the degree of colocalization of LAT9991F-PAL-target complexes and LANCL1 or LANCL2 using either the Measure Colocalization plugin in Metamorph or the JACoP plugin in ImageJ).
A549 or NCI-H358 cells (ATCC CCL-185 and ATCC CRL-5807, respectively) were cultured in appropriate medium containing 10% heat-inactivated FBS (Dutscher, #SV30160-036), 1% penicillin/streptomycin (Gibco, #15140-122) and maintained in a humidified 37° C. incubator with 5% CO2.
LAT9991F-PAL was dissolved in DMSO to make a 10 mM stock solution. Intermediate solutions at 25 μM and 2.5 μM were made in the culture medium from the 10 mM stock solutions of LAT8881 and LAT9991F-PAL, respectively. A two-fold dilution into PBS of each intermediate solution was used for cell treatment. A stock solution at 10 mM was prepared for the other competitors as GSH, NSC61610 and ABA. A final concentration at 25 μM was used for the assay.
A549 or NCI-H358 cells were seeded onto ibidiTreat Polymer Coverslips (Ibidi, #80826) at 2.5×10^5 cells/cm^2 in 200 μl of complete medium. After 24 hours, the medium was removed and cells were washed with PBS (Gibco, #10010049) and then pre-treated with the Taxol at 1 μM for 3 hours or with H2O2 25 μM for 2 hours. Cells were washed twice with PBS. Induced stress cells or control cells were then exposed to LAT9991F-PAL (2.5 μM) in PBS for 30 minutes, in the presence or absence of LAT8881 (25 μM), or the other compounds used as a competitor, and pre-incubated 10 minutes. After treatment, cells were washed with cold PBS and UV-irradiated (365 nm) in PBS for 20 min. After fixation with 4% paraformaldehyde and permeabilization (0.5% Triton/PBS) (Image-iT™ Fixation/Permeabilization Kit, ThermoFisher, #R37602), the bioorthogonal reaction with Alexa Fluor 488 Alkyne (1 μM) (ThermoFisher, #A10267) was performed at 25° C. using the Click-iT™ Cell Reaction Buffer Kit (ThermoFisher, #C10269) according to the manufacturer protocol. After click reaction, cells were washed twice with PBS, blocked with 3% BSA in PBS for 1 hour and stained with Hoechst 33342 dye (ThermoFisher, #H1399).
For colocalization experiments, cells were further incubated overnight at 4° C. with a mouse anti-LanCL1 antibody (Invitrogen, PAS-57-107) (dilution 1:1000) or LanCL2 (Atlas Antibodies HPA019711) (dilution 1:1000) in 3% BSA in PBS, washed twice with PBS, and then incubated respectively with a goat anti-mouse […] (Molecular Probes, #A21467) (dilution 1:800) for 1 h in 3% BSA in PBS. After three further washing steps with PBS, cells were embedded in Ibidi Mounting Medium (ibidi, #50001). The specimens were kept at 4° C. in the dark until analysis.
Images were acquired on an Axiovert200M (Zeiss) microscope using a CSU-W1 Yokogawa confocal unit. This microscope is equipped with a plan Apochromat X40 dry objective numerical aperture (NA) 0.95 and a Neofluar X100 oil immersion objective NA 1.45. Images were capture with an EMCCD camera (Prior, ProEM 1024×1024).

Substance	Subcellular location of the target stained by PAL probe ([1]; high-powered imaging, neurons from neuropathic animals (FIG. 2))	Localisation of PAL probe in DRG cell cultures ([1]; neuropathic vs unaffected DRG, 1 hour incubation before UV irradiation)	Cross-linking of PAL probe to tissue homogenates of nerve from neuropathic animals [2]	Molecular weight ranges of targets stained after gel separation ([2]; FIG. 3 legend, LAT9991-PAL 5 μM)	Molecular weight ranges of targets stained after gel separation ([2]; PAL probe cross-linked to nerve homogenates)	Competition of LAT9991F-PAL binding by excess competitor [3]
LAT9991-PAL: cyclic peptide of SEQ ID NO:12 (LAT9991) conjugated to the PAL (Photo-Activated Labelling) grouping (CRSVEGSCG; disulfide 1-8 (inferred); also: PAL group on N-terminal Cys-Arg part)	expressed just inside the neuronal cell membrane, and with punctate staining in the cytoplasm	localised only in neurons from neuropathic DRG and not from unaffected DRG	cross-linked; also recorded: shown to cross-link	12-15 kDa, 37 kDa and 40-50 kDa	˜12-15 kD, ˜37 kD and ˜50 kD	
YLRIVQCRSVEGSCGF [LAT8881, a cyclic peptide fragment of human growth hormone]						partially competed off
